These are literature values, as cited in US9468651B1, “Method of removing moles” (priority 2009, dated 2016).

The conditions of the data set: property of the ingredient stated with a literature reference (Merck Index; Concise Encyclopedia of Chemical Technology).

Regarding `[K+].[OH-]` [Potassium hydroxide], the PH value is 13.5.
